Test results taken from US12344584B2, “KCNQ potentiators” (Eli Lilly and Company, priority 2019, dated 2025).
Read-outs that look alike come from different tables or passages of the source.

Assays:
[1] = system: motor neurons derived from ALS patient iPSC line with pathogenic mutation in TARDBP; assay: Optopatch excitability assay in motor neurons derived from ALS patient iPSC line (TARDBP mutation); assay type: cell-based, human; details: for EC50: Homo sapiens, iPSC, TARDBP line, blue LED 5.1 mW/cm^2, mean, read-out: EC50, inhibition of excitability (action potential frequency)
From the text: Optopatch Excitability Assay for Example 1 in Motor Neurons Derived From ALS Patient iPSC Lines
Altered excitability of cortical neurons and lower motor neuron is an important factor in the pathophysiology of ALS (See, for example, K. Kanai, et. al., J Neurol Neurosurg Psychiatry, 83, 734-738 (2012); P. Menon, et. al., Eur Neurol., 24, 816-824 (2017)). All-optical electrophysiology (“Optopatch”) was used to evaluate excitability in cultured motor neurons derived from iPSC lines from two ALS patients with different pathogenic mutations.
Cell Culture: The two iPSC lines are derived from one patient with a pathogenic mutation in TARDBP and one patient with a pathogenic repeat expansion mutation in C9orf72, respectively. Motor neurons are generated from these lines by a 2D differentiation method adapted from the dual SMAD inhibition neuronal patterning protocol (See S. M. Chambers, et. al., Nat Biotechnol., 27, 275-280 (2009)) by inclusion of motor neuron morphogens. Differentiation is verified by visual inspection, karyotyping and staining for beta-III-tubulin and the nuclear motor neuron marker ISL1. Neurons are cultured on a monolayer of mouse glia in mTeSR (Stem Cell Technologies), supplemented with 10 ng/mL BDNF. Forty-eight hours prior to imaging, 100 nM trans-retinal was added to the medium.
Transduction with Optopatch vectors: At 15 days in vitro, cultured motor neurons are transduced with a lentiviral vector to drive the co-expression of the actuator CheRiff-mOrange2 and the voltage indicator QuasAr3-Citrine (for details see D. R. Hochbaum, et. al., Nat. Methods, 11, 825-833 (2014)). Forty-eight hours prior to imaging, 100 nM trans-retinal was added to the medium.
Solutions: Recordings are performed in Brainphys™ imaging buffer with 3 mM potassium. The gap junction blocker 2-aminoethoxydiphenyl borate (50 μM) is added to eliminate electrical coupling between cells, and NBQX (10 μM), gabazine (20 μM), and AP5 (25 μM) were used to block synaptic transmission.
Optopatch Recordings: Five days after transduction, Optopatch imaging is performed on a custom, ultra-widefield fluorescence microscope at RT. Motor neurons are illuminated with red laser excitation (200 W/cm^2; 635 nm) to monitor changes in QuasAr fluorescence and blue LED excitation (0-127 mW/cm^2, 470 nm) to depolarize the cell membrane with CheRiff. A custom blue light stimulus protocol is used consisting of: i) 2 sec of red illumination only to monitor spontaneous activity, ii) 5×500 msec steps of increasing blue light intensity and iii) 2×2 sec linearly increasing blue light ramps, each with a different maximum blue intensity. Optopatch data are recorded using a Hamamatsu ORCA-Flash 4.0 sCMOS camera with a 1 kHz frame rate. The field of view size is 4 mm×0.5 mm. Custom control software written in MATLAB is used to control illumination protocols and record all movies. To examine acute effects of Kv7.2/7.3 potentiators, neurons are incubated with test compound for 15 min prior to imaging.
Data Analysis: Image segmentation analysis is performed using temporal Principle Component Analysis and spatial-temporal Independent Component Analysis to isolate individual neurons. A spike-finding algorithm is used to find action potentials, and data are analyzed for compound effects on mean firing rate, adaptation, rheobase and action potential waveform shape by comparing to vehicle controls (for detail, see C. A. Werley, et. al., Curr. Protoc. Pharmacol., 78, 11.20.1-11.20.24. (2017)).
Subjected to the protocol described above, the primary effect of the Example 1 is on the action potential firing rate in response to low intensity blue light illumination.
Fitting a 4-parameter logistic equation to the data may be used to determine the potency (EC50) of the effect of Example 1 on action potential frequency. Results are shown in Table 1 for two separate differentiation efforts each for the lines derived from the patients carrying the TARDBP and C9orf72 mutations.

[2] = Unbound exposure in blood (dry blood spots, LC/MSMS, fraction unbound by dialysis) in threshold tracking study; assay type: in vivo; details: rat
Method: In threshold tracking assay to measure the excitability properties of peripheral axons studies in rat, compound is administered by IP at 3, 10 or 30 mg/kg using 1% hydroxyethylcellulose: 0.25% polysorbate 80:0.05% antifoam:purified water (HEC) formulation. Dry blood spots (DBS) are collected around 10, 20, 30 and terminal 40 min post-dose. DBS samples are dried at RT for around 2 h. Brain samples are obtained at terminal time point and frozen until analysis. DBS samples are shipped and stored at RT.
A 1-mg/mL stock solution of Example 1 is prepared and is serially diluted into pooled rat blood to prepare standards ranging from 1 to 10000 ng/mL. Blood wis spiked to blank DBS cards to make the standards. One 3 mm punch of the DBS standards or samples are added to 96 well plate and 180 μL of the internal standard (IS) in 1:1 ACN:MeOH is added. Shake for 45 min, dilute the extraction solution two fold with water, and analyze by LC/MSMS for drug concentration analysis.
Samples and standards are analyzed with a Sciex API 4000 Triple Quadrupole Mass Spectrometer (Sciex, Division of MDS Inc., Toronto, Canada) coupled to a Shimadzu HPLC System (LC-IOAD, Shimadzu Corporation) and a Gilson 215 Autosampler. […] Quantitation is performed using multiple reaction monitoring (MRM) at the following transitions: Example 1 (m/z 350.2 to m/z 233.0) and an analog internal standard (m/z 263.1 to m/z 148.1). […]
Drug binding to rat plasma proteins and brain homogenates is determined using in vitro dialysis method after spiking drug into these matrixes and incubated over 4.5 h at 37° C., while undergoing orbital shaking. […] Parent is quantitated by LC-MSMS at both 0 and […] time points. Fraction unbound is calculated by dividing the concentration of the buffer side by the concentration of the protein side. Percent recovery is also calculated by dividing the sum of the buffer and protein chambers by the time 0 concentration after 4.5 h. […]

- EC50 ([1]; Diff 1): 150 nM
- EC50 ([1]; Diff 2): 150 nM
- Unbound Exposure in Blood (±SEM) ([2]; 3 mg/kg (IP)): 145 (±90) nM
- Unbound Exposure in Blood (±SEM) ([2]; 10 mg/kg (IP)): 193 (±50) nM
- Unbound Exposure in Blood (±SEM) ([2]; 30 mg/kg (IP)): 352 (±245) nM
Compound: CC(C)(C)[C@H](O)CNC(=O)NCc1ccnc(OCC(F)(F)F)c1 [Example 1, 1-[(2S)-2-hydroxy-3,3-dimethyl-butyl]-3-[[2-(2,2,2-trifluoroethoxy)-4-pyridyl]methyl]urea]
- effect on action potential frequency ([1]; blue LED illumination intensity 5.1 mW/cm^2, text does not distinguish the two lines): decreased action potential frequency in a concentration-dependent manner
- observed effects compared with flupirtine ([1]; both patient lines, vs known Kv7.2/7.3 potentiator flupirtine): qualitatively similar but more potent
